# Test results taken from patent US8119626B2, “Oxime derivative and preparations thereof” (Mitsubishi Tanabe Pharma Corporation, priority 2005, dated 2012).
# Target: T1, human-liver type GST-GK (Homo sapiens, UniProt P35557)
# T1 construct: made in house; host or cells: E. coli
# T1 sequence (P35557 1-466 isoform P35557-2): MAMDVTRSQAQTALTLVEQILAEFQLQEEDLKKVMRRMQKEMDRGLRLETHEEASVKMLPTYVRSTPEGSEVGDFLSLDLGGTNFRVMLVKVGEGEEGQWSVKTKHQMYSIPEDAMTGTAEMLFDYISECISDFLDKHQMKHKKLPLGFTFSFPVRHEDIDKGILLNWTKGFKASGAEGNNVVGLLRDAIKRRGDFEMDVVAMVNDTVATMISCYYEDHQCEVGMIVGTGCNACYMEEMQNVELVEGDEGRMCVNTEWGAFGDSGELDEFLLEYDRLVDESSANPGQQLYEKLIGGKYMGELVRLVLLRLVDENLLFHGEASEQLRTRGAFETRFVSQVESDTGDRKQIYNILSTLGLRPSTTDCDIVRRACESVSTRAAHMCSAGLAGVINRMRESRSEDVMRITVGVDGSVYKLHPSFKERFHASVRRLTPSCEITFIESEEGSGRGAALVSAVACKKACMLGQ
# Experiment: Glucokinase activation effect (G6PDH-coupled NADPH assay)
# Format: biochemical
# Settings: 5 mM glucose, 5 mM ATP, 30° C., absorbance 340 nm for 15 minutes, 5% DMSO
# Method: A glucokinase activity was examined by measuring the amount of NADPH obtained in generating 6-phosphogluconic acid from glucose-6-phosphoric acid by a coupling enzyme glucose-6-phosphate dehydrogenase not by measuring directly the produced glucose-6-phosphoric acid. The glucokinase enzyme used in the examination is human-liver type GST-GK expressed in E. Coli. The measurement of GK activity was carried out by the following procedures.
# Twenty five mM HEPES buffer (pH7.4) containing 25 mM MgCl2, […], 1 mM DTT, 5 mM NADP (Roche), 16.64 μg/mL G6PDH (Roche 737-232 grade II from yeast) and 2.8 μg/mL GST-GK was prepared as a reaction solution. An evaluating compound dissolved in DMSO was added to the reaction solution to give final concentration of 0.001 to 100 μM (5% DMSO). Thereto was added glucose (final concentration of 5 mM) as a substrate and was added ATP (final concentration of 5 mM), and the reaction was started. The reaction temperature is 30° C. and a generation of NADPH was monitored by changes of absorbance of 340 nm. An increasing in absorbance for 15 minutes from starting reaction was measured and the blank-corrected value was used as GK activity (mOD/min). EC50 level was calculated by a GK activity level in at each concentration of an evaluating compound.
row,SMILES,EC50 [nM]
1,CC(=O)N1CCN(Cc2cnc(NC(=O)/C(=N/O[C@@H]3CCOC3)c3ccc(S(=O)(=O)C4CC4)cc3)s2)CC1 [Example 10],790
2,C[C@@H](CO)O/N=C(/C(=O)Nc1ncc(Cl)s1)c1ccc(S(=O)(=O)C2CC2)cc1 [Example 104-2],300
3,CC(=O)N1CCN(Cc2cnc(NC(=O)/C(=N/O[C@@H]3CCOC3)c3ccc(S(=O)(=O)[C@H]4CCOC4)cc3)s2)C[C@H]1C [Example 139-237],600
4,COCCCS(=O)(=O)c1ccc(/C(=N\O[C@@H]2CCOC2)C(=O)Nc2ncc(COC)s2)cc1 [Example 98-1],840
5,COCCCS(=O)(=O)c1ccc(/C(=N\O[C@@H]2CCOC2)C(=O)Nc2nc3ccc(OCCO)nc3s2)cc1 [Example 98-7],230
6,CC(=O)N1CCN(Cc2cnc(NC(=O)/C(=N/O[C@@H]3CCOC3)c3ccc(S(=O)(=O)C4CC4)cc3)s2)C[C@@H]1C [Example 9],550
7,COCCCS(=O)(=O)c1ccc(/C(=N\OC2CCCC2)C(=O)Nc2ccc(C(N)=O)cn2)cc1 [Example 139-159],520
8,COCCCS(=O)(=O)c1ccc(/C(=N\O[C@@H]2CC[C@@H](O)C2)C(=O)Nc2ncc(C)s2)cc1 [Example 139-182],520
9,COCCCS(=O)(=O)c1ccc(/C(=N\O[C@@H]2CCOC2)C(=O)Nc2nc3ccc(OCCO)cc3s2)cc1 [Example 139-214],570
10,COCCN(C)S(=O)(=O)c1ccc(/C(=N\O[C@@H]2CCOC2)C(=O)Nc2ncc(CN3CCN(C)CC3)s2)cc1 [Example 139-125],760
11,O=C(O)CCSc1cnc(NC(=O)/C(=N/O[C@@H]2CCOC2)c2ccc(S(=O)(=O)C3CC3)cc2)s1 [Example 46-1],100
12,CC(=O)N1CCC(OCc2cnc(NC(=O)/C(=N/O[C@@H]3CCOC3)c3ccc(S(=O)(=O)C4CC4)cc3)s2)CC1 [Example 56],320
13,COCCCS(=O)(=O)c1ccc(/C(=N\OCc2ncccn2)C(=O)Nc2nc3ccc(OC)nc3s2)cc1 [Example 139-134],180
14,O=C(Nc1ncc(CN2CCOCC2)s1)/C(=N/O[C@@H]1CCOC1)c1ccc(S(=O)(=O)C2CC2)cc1 [Example 18-2],930
15,CNCCOc1ccc2nc(NC(=O)/C(=N/O[C@@H]3CCOC3)c3ccc(S(=O)(=O)NCCO)cc3)sc2n1 [Example 139-244],460
16,O=C(Nc1ncc(F)s1)/C(=N/O[C@@H]1CCOC1)c1ccc(S(=O)(=O)NCCF)cc1 [Example 82-78],600

row,SMILES,EC50 [nM]
1,O=C(Nc1ncc(F)s1)/C(=N/OCCCO)c1ccc(S(=O)(=O)C2CC2)cc1 [Example 67-2],390
2,COc1cnc(NC(=O)/C(=N/O[C@@H]2CC[C@@H](OC)C2)c2ccc(S(=O)(=O)C3CC3)cc2)cn1 [Example 139-41],540
3,O=C(Nc1ncc(F)s1)/C(=N/O[C@@H]1CCOC1)c1ccc(S(=O)(=O)N2CCCOCC2)cc1 [Example 82-22],260
4,Cn1ccnc1CS(=O)(=O)c1ccc(/C(=N\O[C@@H]2CCOC2)C(=O)Nc2ncc(F)s2)cc1 [Example 84-12],410
5,CCN(CCO)S(=O)(=O)c1ccc(/C(=N\O[C@@H]2CCOC2)C(=O)Nc2cnc(C3CC3)cn2)cc1 [Example 139-94],350
6,Cn1ccc(CO/N=C(/C(=O)Nc2ncc(F)s2)c2ccc(S(=O)(=O)C3CC3)cc2)n1 [Example 62-10],270
7,O=C(Nc1ncc(F)s1)/C(=N/OCc1ncccn1)c1ccc(S(=O)(=O)C2CC2)cc1 [Example 62-5],410
8,CN(C)CCOc1ccc2nc(NC(=O)/C(=N/O[C@@H]3CCOC3)c3ccc(S(=O)(=O)C4CC4)cc3)sc2n1 [Example 13-3],170
9,COCC(=O)N1[C@H](C)CN(Cc2cnc(NC(=O)/C(=N/O[C@@H]3CCOC3)c3ccc(S(=O)(=O)C4CC4)cc3)s2)C[C@@H]1C [Example 11],880
10,COc1ccc2nc(NC(=O)/C(=N/O[C@@H]3CCOC3)c3ccc(S(=O)(=O)C4CC4)cc3)sc2n1 [Example 24-25],84
11,O=C1CN(Cc2cnc(NC(=O)/C(=N/O[C@@H]3CCOC3)c3ccc(S(=O)(=O)C4CC4)cc3)s2)CCN1 [Example 6],1200
12,CS(=O)(=O)c1ccc(/C(=N\OC2CCCC2)C(=O)Nc2ncc(C(N)=O)s2)cc1 [Example 91-8],520
13,Cc1nsc(NC(=O)/C(=N/O[C@@H]2CC[C@@H](O)C2)c2ccc(S(=O)(=O)C3CC3)cc2)n1 [Example 116],570
14,CNc1ccc2nc(NC(=O)/C(=N/O[C@@H]3CCOC3)c3ccc(S(=O)(=O)CCCOC)cc3)sc2n1 [Example 139-221],130
15,O=C(Nc1nccs1)/C(=N/OCc1ccccn1)c1ccc(S(=O)(=O)C2CC2)cc1 [Example 94-6],510
